{
  "source": "patent US20200147149A1",
  "about": "“COMPOSITIONS AND METHODS FOR THE MODULATION OF GUT SENSORY CELLS” (Duke University, priority 2017, published 2020)",
  "key": {"nodose neurons [1]": {"tested_on": "nodose neurons", "assay": "Patch-clamp electrophysiology of nodose neurons cultured alone", "format": "cell-based, mouse", "conditions": "10-20 mM D-glucose"}, "[2]": {"tested_on": "vagal nodose neurons connected to enteroendocrine cells", "assay": "Patch-clamp electrophysiology of nodose neurons co-cultured with enteroendocrine cells", "format": "cell-based, mouse", "conditions": "D-glucose (10 mM); for excitatory postsynaptic potentials and action potentials in connected neurons: co-culture", "procedure": "The small intestines of CckGFP and CckCRE_ChR2-tdTomato mice were dissected and flushed twice with cold PBS. The intestine was cut open lengthwise and cut again into ˜1 cm pieces. Tissue pieces were incubated with 3 mM EDTA at 4° C. for 15 minutes then at 37° C. for 15 minutes. New cold PBS was added and villi and crypts were mechanically detached. Villi and crypts were spun down and further digested in Collagenase and Dispase. Cells were spun down and re-suspended in L-15 media with 5% FBS and DNase to prevent cell clumping. Cells were passed through a 70 μm then 40 μm cell strainer to isolate single cells. Then cells were sorted using Fluorescence Activated Cell sorting (BD FACSAria) selecting for GFP fluorescence cells. Cells were sorted into culture media: 10 μl/ml Glutamax, 10 μl/ml HEPES, 20 μl/ml Penicillin-Streptomycin, 10 μl/ml N2 supplement, 20 μl/ml B27 supplement, 0.25 μl/ml EGF, 0.5 μl/ml Noggin, 1 μl/ml r-Spondin and 1 μl/ml NGF in Advanced DMEM/f12. Sorted cells were plated on Matrigel coated 12 mm coverslips at a concentration of ˜8-10 k enteroendocrine cells per coverslip. Nodose neurons were dissected and incubated with Liberase digestion enzyme. Enzyme was washed off and replaced with media. Single cells were dissociated by mechanical force and filtered through a 70 μm cell strainer. Neurons in media were plated evenly on up to 8 coverslips with enteroendocrine cells. Patch-clamp electrophysiology was performed 1-5 days after plating.\nEnteroendocrine cells and nodose neurons were co-cultured as described above. Co-culture coverslips were placed in the recording chamber filled with extracellular solution. Recordings were carried out at room temperature using a MultiClamp 700B amplifier (Axon Instruments), digitized using a Digidata 1550A (Axon Instruments) interface, and pClamp software (Axon Instruments) for data acquisition. Data was filtered at 1 kHz and sampled at 10 kHz. CCK-producing enteroendocrine cells were identified by GFP expression and neurons by their morphology and lack of fluorescence. Recordings were made using borosilicate glass pipettes pulled to ˜3.5 MΩ resistance [DVB4]. Extracellular solution contained (in mM): 140 NaCl, 5 KCl, 2 CaCl2, 2 MgCl2, 10 HEPES, pH 7.4 (300-305 mOsmol). For voltage-clamp recordings, intracellular solution contained (in mM): 140 CsF, 10 NaCl, 0.1 CaCl2, 2 MgCl2, 1.1 EGTA, 10 HEPES, 10 sucrose (pH, 7.25, 290-295 mOsmol). For current-clamp recordings, intracellular solution contained (in mM): 140 KCl, 0.5 EGTA, 5 HEPES, 3 Mg-ATP, 10 sucrose (pH, 7.25, 290-295 mOsmol). Neurons were held at −70 mV for 5 min after patching in voltage-clamp mode (to stabilize cells), and then switched to the current-clamp mode. At the resting membrane potential, cell properties such as input resistance, and spike threshold were determined using 200 ms steps from −40 pA to 100 pA in 20 pA increment. […] After glucose exposure, neurons were tested with a current or voltage pulse to confirm the health of the cell. For glutamate receptor blocker experiments, the […]® Micro-perfusion system (Automate Scientific, Inc.) was used. Once the neuron was patched, the […]® nozzle was brought to within 100 μm of the cell, while extracellular solution was perfusing. Kynurenic acid (3 mM) was perfused, then washed for 5 minutes after and the neuron was tested again. EPSC responses were recorded for 1 second after light stimulation. Data are presented as the mean±S.E.M. and significance was determined using a two-tailed Student's t test."}, "[3]": {"tested_on": "intestinal CCK enteroendocrine cells", "assay": "Calcium imaging (GCaMP6s) of enteroendocrine cells in CckCRE_tdTomato intestinal organoids", "format": "cell-based, mouse", "conditions": "n=3", "procedure": "(§1) For neurons, Phox2bCRE_GCaMP6s (n=3) nodose neurons were dissociated and plated. Nodose ganglia were dissected and digested in Liberase (Roche, 5401054001). Neurons were washed and filtered through a 70 μm cell strainer, then plated on 12 mm coverslips and placed in an incubator overnight. Cells were imaged 1-2 days later. Coverslips were placed in the recording chamber of a Zeiss Examiner Z1 and imaged with a Hamamatsu camera (Orca-flash4.0; C11440) using the Zeiss ZEN software package. For enteroendocrine cells, CckCRE_tdTomato organoids with transduced with ΔG-rabies-GCaMP6s. Organoids were imaged using multi photon microscopy 3-4 days after transduction. Imaging buffer (in mM: 140 NaCl, 5 KCl, 2 CaCl2, 2 MgCl2, 10 HEPES) was continuously perfused over the coverslips. […] Images were analyzed with Fiji ([…]), and cell traces were plotted with Matlab."}, "enteroendocrine cells": {"tested_on": "enteroendocrine cells", "assay": "iGluSnFR-HEK cell and CckCRE_tdTomato enteroendocrine cell co-culture, imaging of glutamate release", "format": "cell-based, mouse", "conditions": "D-glucose 40 mM, n=3 cultures", "procedure": "(§2) CckCRE_tdTomato enteroendocrine cells were isolated as described above. Isolated cells were mixed with iGluSnFR-HEK cells at a ratio of 10:1, then plated on 1% Matrigel coated coverslips. Control iGluSnFR-HEK cells were plated alone. Cells were incubated for 12-18 hours before imaging. Coverslips were imaged using a multiphoton microscopy system (Bruker Ultima IV with a Chameleon Vision II tunable laser). Imaging frames were captured at 1.876 fps, using 920 nm light. Imaging series were analyzed using Fiji (ImageJ), and cell traces were plotted with Excel."}, "iGluSnFR-HEK cells": {"tested_on": "iGluSnFR-HEK cells", "assay": "iGluSnFR-HEK cells cultured alone, multiphoton imaging", "format": "cell-based", "conditions": "D-glucose 40 mM", "procedure": "HEK 293/17 cells (ATCC CRL-11268) were maintained in DMEM (Gibco 11965) supplemented with 10% FBS (Corning 35-010-CV), Glutamax, and non-essential amino acids (both Gibco). Cells were transfected with 1 ug plasmid pCMV(MinDis) iGluSnFR (Addgene 41732) using 1 ul Lipofectamine 2000 in Optimem (Gibco) in 24-well plates.\nThe 5.2 Kb iGluSnFR (pCMV(MinDis).iGluSnFR was a gift from Loren Looger; Addgene plasmid #41732) was moved to the zeocin resistant backbone of Addgene #51694 (DRH296: FCK-Optopatch2 was a gift from Adam Cohen) as a NdeI+XhoI fragment. The resulting plasmid (pMEK8) was transfected into HEK 293/17 cells (ATCC CRL-11268) using 1 μl Lipofectamine 2000/ug DNA. Cells were maintained in DMEM (Gibco 11965) supplemented with 10% FBS (Corning 35-010-CV), Glutamax, non-essential amino acids (both Gibco) and 3 μl/ml zeocin ([…], Invitrogen).\nas §2"}, "nodose neurons [4]": {"tested_on": "nodose neurons", "assay": "Calcium imaging of dissociated Phox2bCRE_GCaMP6s nodose neurons", "format": "cell-based, mouse", "procedure": "as §1"}, "[5]": {"conditions": "20 mM D-glucose, mice=3, cells=246"}},
  "note": "“Also recorded” adds a separate entry of the source.",
  "data": [
    {"smiles": "O=C[C@H](O)[C@@H](O)[C@H](O)[C@H](O)CO", "note": "[D-glucose]", "values": [
      {"measurement": "excitatory currents / action potentials in nodose neurons cultured alone", "setting": "nodose neurons [1]", "result": "neither excitatory currents nor action potentials were observed"},
      {"measurement": "excitatory currents / action potentials in nodose neurons cultured alone", "setting": "nodose neurons [1]; listed as glucose", "result": "did not activate"},
      {"measurement": "excitatory postsynaptic potentials and action potentials in connected neurons", "setting": "[2]", "result": "evoke excitatory postsynaptic potentials and action potentials"},
      {"measurement": "excitatory postsynaptic potentials and action potentials in connected neurons", "setting": "[2]; listed as glucose", "result": "evoked EPSCs; also recorded: induced excitatory post-synaptic potentials and action potential spikes"},
      {"measurement": "action potentials in the connected neurons (average)", "setting": "[2]; current-clamp, n=5 pairs", "result": "2±0.32"},
      {"measurement": "average current of the excitatory post-synaptic potentials (EPSPs)", "setting": "[2]; voltage-clamp, n=6", "result": "61.65±15.21", "unit": "pA"},
      {"measurement": "average frequency of the excitatory post-synaptic potentials", "setting": "[2]; voltage-clamp, n=6", "result": "0.86±0.17", "unit": "Hz"},
      {"measurement": "magnitude of the sugar response as percent fluorescence of the KCl response", "setting": "[3]; 20 mM D-glucose, 40 mM KCl control", "result": "56.0±20", "unit": "%"},
      {"measurement": "calcium transients, percent of the KCl control response", "setting": "[3]; D-glucose (10 mM) as printed", "result": "56.0%±20.0"},
      {"measurement": "fluorescence response of iGluSnFR-HEK cells in close proximity to enteroendocrine cells (glutamate release)", "setting": "enteroendocrine cells", "result": "rapidly fluoresced green; also recorded: elicits a response"},
      {"measurement": "fluorescence response of iGluSnFR-HEK cells cultured alone", "setting": "iGluSnFR-HEK cells", "result": "did not respond"},
      {"measurement": "fluorescence response of iGluSnFR-HEK cells cultured alone", "setting": "iGluSnFR-HEK cells; listed as Dglucose", "result": "not"},
      {"measurement": "percent of Fast Blue positive nodose neurons (innervating small intestine) that did not respond", "setting": "nodose neurons [4]; 20 mM D-glucose, mice=2, cells=73", "result": 100, "unit": "%"},
      {"measurement": "percent of nodose neurons that did not respond", "setting": "nodose neurons [4]; [5]", "result": "97.3±1.9", "unit": "%"},
      {"measurement": "percent of nodose neurons that responded", "setting": "nodose neurons [4]; [5]", "result": "2.7±1.9", "unit": "%"},
      {"measurement": "calcium transients in dissociated nodose ganglia neurons", "setting": "nodose neurons [4]; D-glucose (10 mM) as printed, n=246 cells from 3 mice", "result": "did not elicit calcium transients"},
      {"measurement": "calcium response in Fast Blue labeled nodose neurons", "setting": "nodose neurons [4]; D-glucose (20 mM)", "result": "no calcium response was observed"}
    ]}
  ]
}
